Results from PubChem BioAssay (NCI).
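A five-concentration, 48-hour dose response in 96-well plates underlies each endpoint, interpolated linearly between surrounding concentrations. TGI is the concentration that stops growth completely.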

What was measured:
Assay in all cases: NCI-60 cell line screen, 48 h
U251 CNS = test system: U251 CNS
HT29 colon = test system: HT29 colon
SK-MEL-2 melanoma = test system: SK-MEL-2 melanoma
786-0 renal = test system: 786-0 renal
A498 renal = test system: A498 renal
IGROV1 ovarian = test system: IGROV1 ovarian
UACC-62 melanoma = test system: UACC-62 melanoma
NCI-H226 lung = test system: NCI-H226 lung
SNB-75 CNS = test system: SNB-75 CNS
DMS 114 small cell lung = test system: DMS 114 small cell lung
RPMI-8226 leukemia = test system: RPMI-8226 leukemia
PC-3 prostate = test system: PC-3 prostate
SN12C renal = test system: SN12C renal
MALME-3M melanoma = test system: MALME-3M melanoma
NCI-H23 lung = test system: NCI-H23 lung
SNB-19 CNS = test system: SNB-19 CNS
A549 NSCLC = test system: A549 NSCLC
XF 498 CNS = test system: XF 498 CNS
HCT-15 colon = test system: HCT-15 colon
HCC-2998 colon = test system: HCC-2998 colon
MCF7 breast = test system: MCF7 breast
RXF 393 renal = test system: RXF 393 renal
COLO 205 colon = test system: COLO 205 colon
MOLT-4 leukemia = test system: MOLT-4 leukemia
MDA-MB-435 = test system: MDA-MB-435
OVCAR-5 ovarian = test system: OVCAR-5 ovarian
SK-OV-3 ovarian = test system: SK-OV-3 ovarian
BT-549 breast = test system: BT-549 breast
MDA-MB-231 breast = test system: MDA-MB-231 breast
SW-620 colon = test system: SW-620 colon
TK-10 renal = test system: TK-10 renal
M19-MEL melanoma = test system: M19-MEL melanoma
UO-31 renal = test system: UO-31 renal
UACC-257 melanoma = test system: UACC-257 melanoma
SF-295 CNS = test system: SF-295 CNS
LXFL 529 NSCLC = test system: LXFL 529 NSCLC
DLD-1 colon = test system: DLD-1 colon
SF-539 CNS = test system: SF-539 CNS
KM12 colon = test system: KM12 colon
HCT-116 colon = test system: HCT-116 colon
OVCAR-3 ovarian = test system: OVCAR-3 ovarian
CCRF-CEM leukemia = test system: CCRF-CEM leukemia
SNB-78 CNS = test system: SNB-78 CNS
SF-268 CNS = test system: SF-268 CNS
DMS 273 small cell lung = test system: DMS 273 small cell lung
OVCAR-4 ovarian = test system: OVCAR-4 ovarian
T-47D breast = test system: T-47D breast
OVCAR-8 ovarian = test system: OVCAR-8 ovarian
ACHN renal = test system: ACHN renal
MDA-N = test system: MDA-N
LOX IMVI melanoma = test system: LOX IMVI melanoma
NCI-H460 lung = test system: NCI-H460 lung
HS 578T breast = test system: HS 578T breast
HL-60(TB) leukemia = test system: HL-60(TB) leukemia
HOP-62 NSCLC = test system: HOP-62 NSCLC
SK-MEL-5 melanoma = test system: SK-MEL-5 melanoma
DU-145 prostate = test system: DU-145 prostate
HOP-18 NSCLC = test system: HOP-18 NSCLC
HOP-92 NSCLC = test system: HOP-92 NSCLC
NCI-H522 lung = test system: NCI-H522 lung
M14 melanoma = test system: M14 melanoma
K-562 leukemia = test system: K-562 leukemia
NCI/ADR-RES ovarian = test system: NCI/ADR-RES ovarian
SK-MEL-28 melanoma = test system: SK-MEL-28 melanoma
EKVX NSCLC = test system: EKVX NSCLC
CAKI-1 renal = test system: CAKI-1 renal
KM20L2 colon = test system: KM20L2 colon
SR leukemia = test system: SR leukemia

Measured: TGI

O=c1cc(-c2cccnc2)[nH]c2cc3c(cc12)OCO3
26.8 µM: LXFL 529 NSCLC
> 53.5 µM: NCI-H23 lung
27.1 µM: SNB-75 CNS
> 95.3 µM: OVCAR-8 ovarian
58.8 µM: HOP-62 NSCLC
84.1 µM: HOP-18 NSCLC
> 20.7 µM: OVCAR-3 ovarian
69.6 µM: HS 578T breast
> 89.6 µM: NCI-H226 lung
> 64.3 µM: HCT-15 colon
4.6 µM: MDA-MB-435
> 67 µM: SK-OV-3 ovarian
19.4 µM: HCC-2998 colon
59.3 µM: HT29 colon
40 µM: NCI/ADR-RES ovarian
72.7 µM: XF 498 CNS
23.9 µM: SK-MEL-5 melanoma
5.71 µM: MDA-N
> 26 µM: MALME-3M melanoma
31.9 µM: HL-60(TB) leukemia
> 21.6 µM: NCI-H522 lung
> 69.9 µM: A498 renal
> 96.3 µM: RXF 393 renal
79.6 µM: SNB-19 CNS
30.8 µM: U251 CNS
17.7 µM: SF-539 CNS
> 38.5 µM: SF-295 CNS
> 28.1 µM: IGROV1 ovarian
not listed: EKVX NSCLC | CAKI-1 renal | KM20L2 colon | SR leukemia
> 100 µM: all other assays above

COC(=O)C(CC1=C(O)Nc2ccccc2N1)/C(=N/NC(N)=O)C(=O)Nc1ccccc1C (stereo not given)
36.8 µM: HCT-116 colon
48.8 µM: CCRF-CEM leukemia
33.9 µM: NCI-H522 lung
48.4 µM: RPMI-8226 leukemia
35 µM: LOX IMVI melanoma
48.5 µM: SR leukemia
26.5 µM: DMS 114 small cell lung
34.1 µM: HCT-15 colon
36.9 µM: DMS 273 small cell lung
45.2 µM: SF-268 CNS
not listed: PC-3 prostate | XF 498 CNS | MCF7 breast | MDA-MB-435 | BT-549 breast | MDA-MB-231 breast | SW-620 colon | T-47D breast | MDA-N | HS 578T breast | DU-145 prostate | NCI/ADR-RES ovarian
> 100 µM: all other assays above
